Test results published in patent publication US20160176867A1, “MODIFIED BET-PROTEIN-INHIBITING DIHYDROQUINOXALINONES AND DIHYDROPYRIDOPYRAZINONES” (BAYER PHARMA AKTIENGESELLSCHAFT, priority 2013, published 2016).

Legend:
[1] = target: T1, BRD4 bromo domain 1 [BRD4(1)] (Homo sapiens, UniProt O60885); test: BRD4/acetylated peptide H4 binding assay (TR-FRET), BRD4 bromo domain 1; conditions: inhibition of BRD4(1)/Ac-H4 peptide interaction
T1 construct: N-terminally His6-tagged BRD4(1) (amino acids 67-152); made in house; host or cells: E. coli
Summary of the method: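 TR-FRET (665/620 nm ratio) measuring displacement of biotinylated tetra-acetylated H4 peptide from His6-BRD4(1) (aa 67-152, E. coli; typically 10 nM) at pH 7.5. Compound (11 concentrations, 0.1 nM–20 μM, duplicates) was preincubated 10 min at 22°C, then 1 h at 22°C and ≥3 h at 4°C; IC50 from 4-parameter fit normalized to DMSO and no-BRD4 controls.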

[2] = target: T2, BRD4 bromo domain 2 [BRD4(2)] (Homo sapiens, UniProt O60885); test: BRD4/acetylated peptide H4 binding assay (TR-FRET), BRD4 bromo domain 2; conditions: inhibition of BRD4(2)/Ac-H4 peptide interaction
T2 construct: N-terminally His6-tagged BRD4(2) (amino acids 357-445); made in house; host or cells: E. coli
Summary of the method: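 IC50 comes from a 4-parameter fit over 0.1 nM–20 μM in duplicate, normalised to DMSO and no-protein controls. TR-FRET (Eu-streptavidin/anti-His-XL665) tracks His-tagged BRD4(2) 357-445 at 100 nM binding Ac-H4 peptide in HEPES pH 7.5 buffer. Incubation was 1 h at 22 °C, then at 4 °C ≥3 h up to overnight.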

Row | SMILES | IC50 [1] [nM] | IC50 [2] [nM]
1 | C[C@@H]1C(=O)N(C)c2ccc(Nc3cccc(S(=O)(=O)N4CCN(C)CC4)c3)cc2N1C1CCOCC1 [Example 71, (3R)-1,3-dimethyl-6-({3-[(4-methylpiperazin-1-yl)sulphonyl]phenl}-amino)-4-(tetrahydro-2H-pyran-4-yl)-3,4-dihydroquinoxalin-2(1H)-one] | 232 | 315
2 | C[C@H]1C(=O)N(C)c2ccc(Nc3cccc(S(=O)(=O)N[C@H]4CC[C@H](N5CCN(CC6CC6)CC5)CC4)c3)nc2N1C1CCOCC1 [Example 36, N-{trans-4-[4-(cyclopropylmethyl)-piperazin-1-yl]cyclohexyl}-3-{[(3S)-1,3-dimethyl-2-oxo-4-(tetrahydro-2H-pyran-4-yl)-1,2,3,4-tetrahydropyrido[2,3-b]pyrazin-6-yl]amino}-benzenesulphonamide] | 727 | 4230
3 | COc1ccc(C(=O)N[C@H]2CC[C@@H](N3CCN(C4CC4)CC3)CC2)cc1Nc1ccc2c(n1)N(C1CCOCC1)[C@H](C)C(=O)N2C [Example 90, N-[cis-4-(4-cyclopropylpiperazin-1-yl)cyclohexyl]-3-{[(3R)-1,3-dimethyl-2-oxo-4-(tetrahydro-2H-pyran-4-yl)-1,2,3,4-tetrahydropyrido[2,3-b]pyrazin-6-yl]amino}-4-methoxybenzamide] | 430 | 332
4 | CC(C)N1CCN(C(=O)c2cccc(Nc3ccc4c(n3)N(Cc3ccccc3)[C@H](C)C(=O)N4C)c2)CC1 [Example 76, (3R)-4-benzyl-6-({3-[(4-isopropylpiperazin-1-yl)carbonyl]phenyl}-amino)-1,3-dimethyl-3,4-dihydropyrido[2,3-b]pyrazin-2(1H)-one] | 143 | 108
